Reference: ChEMBL document CHEMBL5523749, “Amphiphilic Heparinoids as Potent Antiviral Agents against SARS-CoV-2” (J Med Chem, 2024)
Converted amounts (≈) assume the structure as drawn.

Tests used:
[1] = test system: SARS-CoV-2; test: microbe, parasite or virus in culture; settings: Severe acute respiratory syndrome coronavirus 2, D614, Vero C1008
Description: Antiviral activity against SARS-CoV-2 D614 isolates infected in African green monkey Vero E6 cells assessed as reduction in plaque formation treated for 1 hr prior to infection with cells incubated for 30 mins by plaque reduction neutralization test

[2] = test system: SARS-CoV-2; format: functional, organism-based, Severe acute respiratory syndrome coronavirus 2, G614, Vero E6
[3] = molecular target: Spike glycoprotein (Severe acute respiratory syndrome coronavirus 2, UniProt P0DTC2); test: Binding affinity to RBD domain of SARS-CoV-2 spike protein assessed as dissociation constant by Isothermal Titration Calorimetry
[4] = Severe acute respiratory syndrome coronavirus 2, G614, Vero C1008, read-out: IC50

Row | Compound | IC50 [1] [µg/mL] | IC50 ([2]; vero e6) | IC50 [2, 4] [µg/mL] | Kd [3] [µM]
1 | CC(C)CCC[C@@H](C)[C@H]1CC[C@H]2[C@@H]3CC[C@H]4C[C@@H](O[C@@H]5O[C@@H](C(=O)O)[C@@H](O[C@@H]6O[C@@H](C(=O)O)[C@@H](O[C@@H]7O[C@@H](C(=O)O)[C@@H](O[C@@H]8O[C@@H](C(=O)O)[C@@H](OS(=O)(=O)O)[C@H](O)[C@H]8OS(=O)(=O)O)[C@H](O)[C@H]7OS(=O)(=O)O)[C@H](O)[C@H]6OS(=O)(=O)O)[C@H](O)[C@H]5OS(=O)(=O)O)CC[C@]4(C)[C@H]3CC[C@]12C | 48.5 (≈ 32.5 µM) |  |  | 
2 | CC(C)CCC[C@@H](C)[C@H]1CC[C@H]2[C@@H]3CC[C@H]4C[C@@H](O[C@H]5O[C@H](COS(=O)(=O)[O-])[C@@H](O[C@H]6O[C@H](COS(=O)(=O)[O-])[C@@H](O[C@H]7O[C@H](COS(=O)(=O)[O-])[C@@H](O[C@H]8O[C@H](COS(=O)(=O)[O-])[C@@H](OS(=O)(=O)[O-])[C@H](OS(=O)(=O)[O-])[C@H]8OS(=O)(=O)[O-])[C@H](OS(=O)(=O)[O-])[C@H]7OS(=O)(=O)[O-])[C@H](OS(=O)(=O)[O-])[C@H]6OS(=O)(=O)[O-])[C@H](OS(=O)(=O)[O-])[C@H]5OS(=O)(=O)[O-])CC[C@]4(C)[C@H]3CC[C@]12C.[Na+].[Na+].[Na+].[Na+].[Na+].[Na+].[Na+].[Na+].[Na+].[Na+].[Na+].[Na+].[Na+] | 148 | Not Active |  | 
3 | CC(C)CCC[C@@H](C)[C@H]1CC[C@H]2[C@@H]3CC[C@H]4C[C@@H](O[C@@H]5O[C@@H](COS(=O)(=O)O)[C@@H](O[C@@H]6O[C@@H](COS(=O)(=O)O)[C@@H](OS(=O)(=O)O)[C@H](O)[C@H]6OS(=O)(=O)O)[C@H](O)[C@H]5OS(=O)(=O)O)CC[C@]4(C)[C@H]3CC[C@]12C | 32.1 (≈ 28.8 µM) |  |  | 
4 | CCCCCCCCCCCCCCCCCC(=O)NCCCO[C@@H]1O[C@H](COS(=O)(=O)[O-])[C@@H](O[C@H]2O[C@H](COS(=O)(=O)[O-])[C@@H](O[C@H]3O[C@H](COS(=O)(=O)[O-])[C@@H](O[C@H]4O[C@H](COS(=O)(=O)[O-])C(S(=O)(=O)[O-])[C@H](OS(=O)(=O)[O-])[C@H]4OS(=O)(=O)[O-])[C@H](OS(=O)(=O)[O-])[C@H]3OS(=O)(=O)[O-])[C@H](OS(=O)(=O)[O-])[C@H]2OS(=O)(=O)[O-])[C@H](OS(=O)(=O)[O-])[C@H]1OS(=O)(=O)[O-].[Na+].[Na+].[Na+].[Na+].[Na+].[Na+].[Na+].[Na+].[Na+].[Na+].[Na+].[Na+].[Na+] (stereo partly drawn) | 19.5 |  | 70.8 | 
5 | CC(C)CCC[C@@H](C)[C@H]1CC[C@H]2[C@@H]3CC[C@H]4C[C@@H](O[C@@H]5O[C@@H](C(=O)O)[C@@H](O[C@@H]6O[C@@H](C(=O)O)[C@@H](O[C@@H]7O[C@@H](C(=O)O)[C@@H](OS(=O)(=O)O)[C@H](O)[C@H]7OS(=O)(=O)O)[C@H](O)[C@H]6OS(=O)(=O)O)[C@H](O)[C@H]5OS(=O)(=O)O)CC[C@]4(C)[C@H]3CC[C@]12C | 30.4 (≈ 24.6 µM) |  |  | 9.18
6 | C#CCNC(=O)CC[C@@H](C)[C@H]1CC[C@H]2[C@@H]3CC[C@@H]4C[C@H](O[C@@H]5O[C@H](COS(=O)(=O)[O-])[C@@H](O[C@H]6O[C@H](COS(=O)(=O)[O-])[C@@H](O[C@H]7O[C@H](COS(=O)(=O)[O-])[C@@H](O[C@H]8O[C@H](COS(=O)(=O)[O-])[C@@H](OS(=O)(=O)[O-])[C@H](OS(=O)(=O)[O-])[C@H]8OS(=O)(=O)[O-])[C@H](OS(=O)(=O)[O-])[C@H]7OS(=O)(=O)[O-])[C@H](OS(=O)(=O)[O-])[C@H]6OS(=O)(=O)[O-])[C@H](OS(=O)(=O)[O-])[C@H]5OS(=O)(=O)[O-])CC[C@]4(C)[C@H]3CC[C@]12C.[Na+].[Na+].[Na+].[Na+].[Na+].[Na+].[Na+].[Na+].[Na+].[Na+].[Na+].[Na+].[Na+] | 85.3 | Not Active |  | 
7 | C[C@H](CCC[C@@H](C)[C@H]1CC[C@@H]2C1CC[C@H]1[C@H]2CC[C@H]2C[C@@H](O[C@@H]3O[C@H](COS(=O)(=O)[O-])[C@@H](O[C@H]4O[C@H](COS(=O)(=O)[O-])[C@@H](O[C@H]5O[C@H](COS(=O)(=O)[O-])[C@@H](O[C@H]6O[C@H](COS(=O)(=O)[O-])[C@@H](OS(=O)(=O)[O-])[C@H](OS(=O)(=O)[O-])[C@H]6OS(=O)(=O)[O-])[C@H](OS(=O)(=O)[O-])[C@H]5OS(=O)(=O)[O-])[C@H](OS(=O)(=O)[O-])[C@H]4OS(=O)(=O)[O-])[C@H](OS(=O)(=O)[O-])[C@H]3OS(=O)(=O)[O-])CC[C@@]21C)CN=[N+]=[N-].[Na+].[Na+].[Na+].[Na+].[Na+].[Na+].[Na+].[Na+].[Na+].[Na+].[Na+].[Na+].[Na+] (stereo partly drawn) | 16.7 |  | 109 | 
8 | [N-]=[N+]=NCCCCCCCCCCC(=O)NCCCCCCO[C@@H]1O[C@H](COS(=O)(=O)[O-])[C@@H](O[C@H]2O[C@H](COS(=O)(=O)[O-])[C@@H](O[C@H]3O[C@H](COS(=O)(=O)[O-])[C@@H](O[C@H]4O[C@H](COS(=O)(=O)[O-])[C@@H](OS(=O)(=O)[O-])[C@H](OS(=O)(=O)[O-])[C@H]4OS(=O)(=O)[O-])[C@H](OS(=O)(=O)[O-])[C@H]3OS(=O)(=O)[O-])[C@H](OS(=O)(=O)[O-])[C@H]2OS(=O)(=O)[O-])[C@H](OS(=O)(=O)[O-])[C@H]1OS(=O)(=O)[O-].[Na+].[Na+].[Na+].[Na+].[Na+].[Na+].[Na+].[Na+].[Na+].[Na+].[Na+].[Na+].[Na+] | 101 |  | 158 | 
9 | CC(C)CCC[C@@H](C)[C@H]1CC[C@H]2[C@@H]3CC[C@H]4C[C@@H](O[C@@H]5O[C@@H](COS(=O)(=O)O)[C@@H](O[C@@H]6O[C@@H](COS(=O)(=O)O)[C@@H](O[C@@H]7O[C@@H](COS(=O)(=O)O)[C@@H](O[C@@H]8O[C@@H](COS(=O)(=O)O)[C@@H](OS(=O)(=O)O)[C@H](O)[C@H]8OS(=O)(=O)O)[C@H](O)[C@H]7OS(=O)(=O)O)[C@H](O)[C@H]6OS(=O)(=O)O)[C@H](O)[C@H]5OS(=O)(=O)O)CC[C@]4(C)[C@H]3CC[C@]12C | 27.5 (≈ 15.6 µM) |  |  | 
10 | O=C(CCCCCCCCCCn1cc(CNc2ccc([N+](=O)[O-])c3nonc23)nn1)NCCCCCCCCCCCO[C@@H]1O[C@H](COS(=O)(=O)[O-])[C@@H](O[C@H]2O[C@H](COS(=O)(=O)[O-])[C@@H](O[C@H]3O[C@H](COS(=O)(=O)[O-])[C@@H](O[C@H]4O[C@H](COS(=O)(=O)[O-])[C@@H](OS(=O)(=O)[O-])[C@H](OS(=O)(=O)[O-])[C@H]4OS(=O)(=O)[O-])[C@H](OS(=O)(=O)[O-])[C@H]3OS(=O)(=O)[O-])[C@H](OS(=O)(=O)[O-])[C@H]2OS(=O)(=O)[O-])[C@H](OS(=O)(=O)[O-])[C@H]1OS(=O)(=O)[O-].[Na+].[Na+].[Na+].[Na+].[Na+].[Na+].[Na+].[Na+].[Na+].[Na+].[Na+].[Na+].[Na+] | 166 | Not Active |  | 
11 | CC(C)CCC[C@@H](C)[C@H]1CC[C@H]2[C@@H]3CC[C@H]4C[C@@H](OCc5cn(CCCO[C@@H]6O[C@H](COS(=O)(=O)[O-])[C@@H](O[C@H]7O[C@H](COS(=O)(=O)[O-])[C@@H](O[C@H]8O[C@H](COS(=O)(=O)[O-])[C@@H](O[C@H]9O[C@H](COS(=O)(=O)[O-])[C@@H](OS(=O)(=O)[O-])[C@H](OS(=O)(=O)[O-])[C@H]9OS(=O)(=O)[O-])[C@H](OS(=O)(=O)[O-])[C@H]8OS(=O)(=O)[O-])[C@H](OS(=O)(=O)[O-])[C@H]7OS(=O)(=O)[O-])[C@H](OS(=O)(=O)[O-])[C@H]6OS(=O)(=O)[O-])nn5)CC[C@]4(C)[C@H]3CC[C@]12C.[Na+].[Na+].[Na+].[Na+].[Na+].[Na+].[Na+].[Na+].[Na+].[Na+].[Na+].[Na+].[Na+] | 115 |  | 310 | 
12 | CC(C)CCC[C@@H](C)[C@H]1CC[C@H]2[C@@H]3CC[C@H]4C[C@@H](O[C@@H]5O[C@@H](COS(=O)(=O)O)[C@@H](O[C@@H]6O[C@@H](COS(=O)(=O)O)[C@@H](O[C@@H]7O[C@@H](COS(=O)(=O)O)[C@@H](OS(=O)(=O)O)[C@H](O)[C@H]7OS(=O)(=O)O)[C@H](O)[C@H]6OS(=O)(=O)O)[C@H](O)[C@H]5OS(=O)(=O)O)CC[C@]4(C)[C@H]3CC[C@]12C | 26.9 (≈ 18.7 µM) |  |  | 2.11
13 | CC(C)CCC[C@@H](C)[C@H]1CC[C@H]2[C@@H]3CC[C@H]4C[C@@H](O[C@@H]5O[C@H](COS(=O)(=O)[O-])[C@@H](O[C@H]6O[C@H](COS(=O)(=O)[O-])[C@@H](O[C@H]7O[C@H](COS(=O)(=O)[O-])[C@@H](O[C@H]8O[C@H](COS(=O)(=O)[O-])[C@@H](O[C@H]9O[C@H](COS(=O)(=O)[O-])[C@@H](O[C@H]%10O[C@H](COS(=O)(=O)[O-])[C@@H](OS(=O)(=O)[O-])[C@H](OS(=O)(=O)[O-])[C@H]%10OS(=O)(=O)[O-])[C@H](OS(=O)(=O)[O-])[C@H]9OS(=O)(=O)[O-])[C@H](OS(=O)(=O)[O-])[C@H]8OS(=O)(=O)[O-])[C@H](OS(=O)(=O)[O-])[C@H]7OS(=O)(=O)[O-])[C@H](OS(=O)(=O)[O-])[C@H]6OS(=O)(=O)[O-])[C@H](OS(=O)(=O)[O-])[C@H]5OS(=O)(=O)[O-])CC[C@]4(C)[C@H]3CC[C@]12C.[Na+].[Na+].[Na+].[Na+].[Na+].[Na+].[Na+].[Na+].[Na+].[Na+].[Na+].[Na+].[Na+].[Na+].[Na+].[Na+].[Na+].[Na+].[Na+] | 11.9 |  | 65.9 | 
